# Measurements published in BindingDB's records for doi:10.1016/0960-894X(96)00091-1 (1996).
# Biological target: Endothelin-converting enzyme 1 (Sus scrofa)
# Test: Compound was evaluated for inhibition of Endothelin-converting enzyme 1 partially purified from porcine primary aortic endothelial cells
row,IC50 [µM],Structure (SMILES)
1,5.2,O=C(Cc1ccc(-c2ccccc2)cc1)N[C@@H](CS)Cc1cccnc1 [2-Biphenyl-4-yl-N-((R)-1-mercaptomethyl-2-pyridin-3-yl-ethyl)-acetamide]
2,7.7,O=C(Cc1ccc(OCc2cccnc2)cc1)N[C@@H](CS)Cc1c[nH]c2ccccc12 [N-[(R)-2-(1H-Indol-3-yl)-1-mercaptomethyl-ethyl]-2-[4-(pyridin-3-ylmethoxy)-phenyl]-acetamide]
3,5.2,O=C(N[C@@H](CS)Cc1c[nH]c2ccccc12)c1cccs1 [Thiophene-2-carboxylic acid [(R)-2-(1H-indol-3-yl)-1-mercaptomethyl-ethyl]-amide]
4,6.5,O=C(N[C@@H](CS)Cc1c[nH]c2ccccc12)C1CCN(C(=O)Cc2ccc(-c3ccccc3)cc2)CC1 [1-(2-Biphenyl-4-yl-acetyl)-piperidine-4-carboxylic acid [(R)-2-(1H-indol-3-yl)-1-mercaptomethyl-ethyl]-amide]
5,5.4,O=C(CCC(C(=O)O)c1ccccc1)N[C@@H](CS)Cc1c[nH]c2ccccc12 (stereo partly drawn) [4-[(R)-2-(1H-Indol-3-yl)-1-mercaptomethyl-ethylcarbamoyl]-2-phenyl-butyric acid]
